In patent US20050256179A1, “Selective pharmacologic inhibition of protein trafficking and related methods of treating human diseases” (priority 2003, published 2005):

Legend:
Format in all cases: cell-based
[1] = test system: GS28; assay: GS28 expression by Western blotting; details: for GS28 expression: 100 ng/ml
Protocol: (§1) The culture medium was removed by vacuuming (for attached cells) or by low speed centrifugation (for suspension cells) for 5-7 minutes at room temperature. The cells were wasedh twith PBS, spun at 1200 rpm and the cell pellets were kept on ice. 300 μl/2.0×10^7 cells of ice cold lysis buffer was added with freshly added protease inhibitors. Cell pellets were gently resuspended and incubated on ice for at least 30 min, vortexed a few times during incubation. Cell lysate was spun at 14,000 rpm for 2-5 min at 4° C. The supernatant was transferred to a new microfuge tube and the pellet was discarded. An aliquot of sample was mixed with an equal volume of 2× sample buffer (InVitrogen), and stored at −80° C. Protein concentration was determined by using “BCA protein assay reagent kit” from Pierce.
(§2) Protein samples (in sample buffer) were boiled for 1-3 minutes and put on ice. Same amount of protein were loaded on the NuPage gel (InVitrogen). After the electrophoresis was complete, proteins were transferred from the gel to a PVDF membrane using the electro-blotting apparatus from InVitrogen; the voltage was set to 25 for 2-3 hr. Block non-specific binding by incubating membrane with 5% milk (in PBS, 0.1% tween 20) for at least 30 min at room temperature or overnight at 4° C. The blocked membrane was incubated with primary antibody (See TABLE 2) diluted in 5% milk for 1 hour at room temperature. Optimal antibody dilution depends on the company, the amount of protein. Dilutions of 1:1000 were generally used for the primary antibodies from Santa Cruz. The membrane was washed with PBS, 0.1% tween 3-4 times 5 mins. The membrane was incubated for 30-60 minutes at room temperature with horseradish peroxidase (HRP) conjugated secondary antibody diluted in 5% milk. We usually used 1:4000 dilution for the secondary antibody from Santa Cruz. The membrane was washed 3-4 times with PBS, 0.1% tween, each time 15 minutes. The detection solutions A and B were mixed in a ratio 40:1 and Pipetted onto the membrane, and incubated for 5 min at RT. A sheet of Hyper film ECL was placed on the top of the membrane in the dark and exposed for 1 min, or adjust accordingly.
To further examine the putative protein trafficking effects of AVP 893, other proteins in this pathway were tested in vitro in B16 and other cell lines. The effect of AVP 893 on cellular proteins was corroborated in B16 cells and extended to include a time-course (FIG. 17). B16-F10 tumor cells were seeded in T75 flasks at 20% confluence and cultured overnight. AVP 893 (100 ng/ml) was added to several flasks and one flask of cells was harvested at several time points following addition of compound. Lysates were prepared, separated by electrophoresis, and probed with antibody as described above in the general Western blotting protocol. Drug effects on GS28 and nicastrin paralleled each other and were progressively stronger with longer drug incubations. […] Other cell lines were tested for their expression of GS28 and nicastrin and found to respond similarly to drug, although quantitative differences were evident. Tumor cell lines found to respond similarly to AVP 893 include CAK1, SF295, PC3, MOLT4, Neuro2a, and RBL (FIGS. 18, 19, and 20). For the experiment shown in FIG. 18, LOX, CAKI, and 3T3 cell lines were treated as described for FIG. 17. For the results shown in FIG. 19, SF295, PC3, MOLT-4, and Neuro2a cells were treated as described for FIG. 17. For the results shown in FIG. 20, LOX, 3T3, and RBL cell lines were treated with varying concentrations of AVP 893 as described for FIG. 17. The effects on LOX cells were less evident. […] Levels of calnexin, a resident ER protein used as a control, were unchanged in drug-treated cells.

[2] = test system: nicastrin; assay: Nicastrin expression/maturation by Western blotting
Protocol: as §1
Protein samples (in sample buffer) were boiled for 1-3 minutes and put on ice. Same amount of protein were loaded on the NuPage gel (InVitrogen). […]
To further examine the putative protein trafficking effects of AVP 893, other proteins in this pathway were tested in vitro in B16 and other cell lines. […] Other cell lines were tested for their expression of GS28 and nicastrin and found to respond similarly to drug, although quantitative differences were evident. […]

[3] = test system: Rab1b; assay: Rab1b expression by Western blotting
Protocol: as §2, with “accordingly. […]” for “accordingly.”

[4] = test system: GS15; assay: GS15 expression in 3T3 cells; details: beginning around 2 to 4 hrs of exposure
Text: (§3) Likewise, the non-resident golgi protein Rab6 appeared to be unaffected in some cell types, as illustrated in FIG. 31.

[5] = test system: GM-130; assay: GM-130 expression; details: data not shown
Text: as §3

[6] = test system: MOLT4 cells; assay: Electron microscopic analysis of golgi structure; details: 200 ng/mL, 2 hrs and 18 hrs
Protocol: Experiments were conducted to examine the golgi structure and morphology on the ultrastructural level following treatment with AVP 893. […] This finding was repeated with Vero cells, where AVP 893 was applied for 1 hr, 4 hrs, and 18 hrs, with the later two exposures resulting in disruption of cisternal structure (data not shown). We therefore conclude that AVP 893 disturbs the structure of the golgi cistemae within a few hours of treatment.

[7] = test system: viruses from families likely to utilize the golgi; assay: In vitro testing of other viral families; details: Table 4
Protocol: The effect of AVP 893 on the spread of viral infection was further investigated. AVP 893 (at 300 ng/ml) was applied 16 hr prior to virus inoculation. Time points shown in FIG. 45 represent the hours after virus inoculation. […] In addition to the immunocytochemistry work shown in FIG. 45, extensive in vitro plaque assays were performed on HSV-1 and -2, as well as other families of virus that use the golgi in their life cycle (see Table 2).
Representative viruses from families likely to utilize the golgi were tested. […] (data not shown).

[8] = test system: PC12 pheochromocytoma cells; assay: Norepinephrine release and dopamine re-uptake in PC12 cells; details: not shown
Text: The proposed mechanism of the AVP compounds on intracellular protein transit also allows certain predictions as to other effects and non-effects that these compounds might share. For example, inhibition of vesicle fusion or budding between the ER and golgi should not affect exocytosis as would be expected of a post-golgi active compound such as Monensin. AVP 893 has minimal effects on the expression of proteins involved in exocytosis, particularly VAMP, SNAP23 (non-neuronal cells), and SNAP25 (neuronal cells).

For O=C(Nc1ccc(-c2nc3cc(NC(=O)C4CCCCC4)ccc3[nH]2)cc1)C1CCCCC1 [AVP 893], the “expression of GS28 and GS15 compared with monensin, Brefeldin A, rapamycin” value ([1]; 3T3 cells, 200 ng/ml, 18 hour) was “decreased the expression of GS28 and GS15 more markedly than the other three agents”, the “IC50 for GS28 expression” value ([1]; 3T3 cells, overnight) was 10 and 100 ng/ml and the “levels of GS28” value ([1]; 3T3 fibroblast cell line) was “virtually eliminated”. The GS28 expression ([1]; B16 cells, two days of culture) was “complete loss of GS28”, the “GS28 or nicastrin expression” value ([1]; resistant line H-460, overnight) was “little effect” and the GS28 expression ([1]; stimulated BALB/c spleen cells, 20 hours) was “abrogated”. The “IC50 for mature nicastrin expression” value ([2]; 3T3 cells, overnight) was 10 and 100 ng/ml, the “levels of mature nicastrin” value ([2]; 3T3 fibroblast cell line) was “virtually eliminated” and the Rab1b expression ([3]; 3T3 cells) was “not affected in 3T3 cells”. For the same compound, the Rab1b expression ([3]; spleen cells) was “suppressed in spleen cells”, the GS15 staining [4] was “greatly diminished” and the GM-130 expression [5] was “did not appear to be affected”. The “golgi structure by electron microscopy” value [6] was “no golgi cisternae were found”, the “spread of other viral families” value [7] was “inhibited” and the “release of norepinephrine, re-uptake of dopamine” value [8] was “does not affect the release of norepinephrine or the re-uptake of dopamine”.
